Experimental data reported in publication PMC11235159, “Targeting a microbiota Wolbachian aminoacyl-tRNA synthetase to block its pathogenic host” (Science Advances, 2024).
Read-outs that look alike come from different tables or passages of the source.

Tests used:
Wolbachia LeuRS = Wolbachia LeuRS (Wolbachia sp. subsp. Brugia malayi, UniProt Q5GS31); conditions: ITC; for -T∆S / ∆G / ∆H: in the presence of AMP; for binding to Wolbachia LeuRS (in words): in the absence of AMP
Source text: We designed constructs of the Wolbachia LeuRS editing domain (fig. S1), which bear the putative drug-binding pocket, for expression and purification of recombinant proteins. Two constructs gave soluble and well-behaving proteins that were used for biophysical and structural studies: a construct encoding for residues 219 to 418, herein named Wolbachia LeuRS; and another construct named Wolbachia LeuRS D1, for which part of an insertion specific to Wolbachia LeuRS (herein denoted as i1) and predicted to be highly disordered was partially deleted (354 to 377) (fig. S1). […] To quantitatively assess the affinity of these compounds to Wolbachia LeuRS, isothermal titration calorimetry (ITC) experiments were carried out.
ITC measurements were performed on a MicroCal iTC200 (GE Healthcare, PA) at 25°C. Wolbachia LeuRS samples were previously dialyzed into the ITC buffer 50 mM Hepes-KOH, pH 7.5, 30 mM KCl, 30 mM MgCl2, and 5 mM β-mercaptoethanol and adjusted to a final concentration of 70 μM. […] A typical ITC experiment consisted of 26 injections of 1.5 μl every 180 s at a stirring speed of 750 rpm. The raw data were processed using MicroCal PEAQ-ITC (v. 1.0.0.1259, Malvern) and Microcal Origin for ITC (v. 7.0).
Thermodynamic parameters were calculated from fitting the binding isotherms to a one-site binding site and
independent model. Experiments were done at least in duplicates.
All the experiments were performed in the presence of AMP, which acts as a surrogate of ATP or tRNALeu
terminal adenosine (Ade76).

[1] = target: T1, Wolbachia LeuRS (full-length) (Wolbachia sp. subsp. Brugia malayi, UniProt Q5GS31); assay: biochemical
Description: The full-length Wolbachia LeuRS construct corresponds to residues 1 to 865 of Wolbachia sp. Brugia malayi (Uniprot Q5GS31).
The IC50 values were calculated using a similar approach as described earlier ([19], [20]). Briefly, Wolbachia full-length LeuRS, total E. coli tRNA crude extract (Roche), and compounds were preincubated for 20 min in 50 mM Hepes-KOH (pH 8.0), 30 mM MgCl2, 30 mM KCl, 0.02% (wt/vol) bovine serum albumin, and 1 mM dithiothreitol with 20 μM [^14C]leucine (306 mCi/mmol; PerkinElmer) at 30°C. Reactions were started by the addition of 4 mM ATP and, at specific times, tRNA was precipitated by the addition of 10% (w/v) trichloroacetic acid (TCA), recovered by filtration (Millipore Multiscreen; MSHAN4B50), washed with 5% TCA (w/v), and counted by a liquid scintillation counter (Wallac). […] The reactivation rates (T½) were determined by measuring the time required for Wolbachia LeuRS to recover 50% of its activity. […] LeuRS inhibitor complexes were then diluted 200-fold, and enzyme activity was determined at various time intervals, as described before. Compound reactivation rates were determined by fitting the LeuRS activity reactivation curves to a one-phase exponential decay model (GraphPad Prism).
*The half-maximum inhibitory concentrations (IC50) and half-life inhibition times (T ½) were calculated from aminoacylation assays with recombinant protein and tRNA (see methods). […]

[2] = target: T1, Wolbachia LeuRS (full-length); assay: Reactivation rate (half-life of inhibition) of Wolbachia LeuRS after dilution of inhibitor complex; type: biochemical; conditions: time for LeuRS to recover 50% of its activity after 200-fold dilution
Description: Wolbachianinfection model.
All reactions were performed in […]

[3] = target: Wolbachia LeuRS (residues 219 to 418) (Wolbachia sp. subsp. Brugia malayi, UniProt Q5GS31); assay: Thermal shift assay (DSF), Wolbachia LeuRS editing domain; type: binding; conditions: wild-type Wolbachia LeuRS construct, in the presence of AMP, vs free protein
Description: The thermal shift assays (TSAs) were performed using a qPCR CFX96 (Bio-Rad) with the FRET scan mode. Samples were prepared in a TSA buffer containing 50 mM Hepes (pH 7.5) and 150 mM NaCl. Each well contained 2 μl of samples as prepared for the crystallization trials, 18 μl of TSA buffer, and 20 μl of 10× SYPRO orange (S6650, Thermo Fisher Scientific).

[4] = system: W. pipientis (wAlbB) in C6/36 cells; assay: A·WOL anti-Wolbachia screening assay in infected C6/36 (wAlbB) insect cells; type: cell-based, Wolbachia pipientis; conditions: for EC50: Wolbachia pipientis, 168 h, 7 days
Source text: To identify active compounds against Wolbachia, we carried out a high-throughput screening assay by testing a library of 202 benzoxaborole compounds in a host-cell model of Wolbachia infection ([5], [18]), which yielded an 18% hit rate. […] The screening in cells was combined with activity experiments (aminoacylation) performed with recombinant full-length Wolbachia LeuRS protein, which were used to calculate the half-maximum inhibitory concentration (IC50) for the most interesting compounds identified in the cell screening. Thus, this yielded compounds with both good anti-Wolbachian in vitro activity and in vivo efficacy, with representative compounds shown in table S1. […] Moreover, the potent in vitro activity of Cmpd9 translated in very good in cellulo efficacy (EC50 = 90 nM) in the Wolbachia infection model (Fig. 1, D and E, and table S1).
The efficacy of compounds, determined as EC50 against Wolbachia in infected host cells, was determined through the anti-Wolbachia consortium’s (A·WOL) routine screening assay as described previously ([18], [27], [29]). […] Compounds were incubated for 7 days with 2000 cells per well on a 384-well plate (CellCarrier-384 Ultra, PerkinElmer) in Leibovitz media (Life Technologies) supplemented with 20% fetal bovine serum (FBS, Thermo Fisher Scientific), 2% tryptose phosphate broth (Sigma-Aldrich), and 1% nonessential amino acids (Sigma-Aldrich). The endpoint readout utilized DNA staining of both the host cell nuclei and intracellular Wolbachia (SYTO 11) combined with a high content imaging system (Operetta, PerkinElmer) and analyzed using the associated Harmony software through a cytoplasm texture analysis. Stock solutions at 10 mM of chemical compounds were prepared in dimethyl sulfoxide (DMSO). Chemical compounds were provided by chemical manufactures (ChemPartner and Anacor Pharmaceuticals), and quality control was verified by NMR spectroscopy (^1H-NMR) and liquid chromatography coupled to mass spectrometry. […]
†The half-maximum effective concentrations (EC50) were calculated in cells infected with Wolbachia […]

[5] = ITC titration of compound into AMP in the absence of protein (adduct formation); type: binding; conditions: no protein
Description: To quantitatively assess the formation of the adenosine-based inhibitor adducts, we performed ITC experiments by titrating Cmpd9 into AMP in the absence of protein (fig. S3D). […]
spectra of AMP/ATP alone or in equimolar (5 mM) mixtures with Cmpd6. A zoomed-in view on the aromatic NMR signals of AMP/ATP is shown. Upon addition of the compounds, the NMR signals of the aromatic groups of AMP/ATP split into an additional two peaks corresponding to the two adducts formed. (C) Spontaneous cyclization of Cmpd6 with ATP/AMP leading to the formation of two diastereomer adducts based on the pseudo symmetry of the ribose. For convenience, adducts with an exo-ribose in panel c) are denote as ty pe “a”, and those with endo-ribose as adducts of type “b”. (D) Isothermal Titration Calorimetry experiment with Cmpd9 injected into AMP leading to the formation of adducts by Cmpd9.
The experiment was performed in triplicate.

T1 sequence (Q5GS31 whole entry): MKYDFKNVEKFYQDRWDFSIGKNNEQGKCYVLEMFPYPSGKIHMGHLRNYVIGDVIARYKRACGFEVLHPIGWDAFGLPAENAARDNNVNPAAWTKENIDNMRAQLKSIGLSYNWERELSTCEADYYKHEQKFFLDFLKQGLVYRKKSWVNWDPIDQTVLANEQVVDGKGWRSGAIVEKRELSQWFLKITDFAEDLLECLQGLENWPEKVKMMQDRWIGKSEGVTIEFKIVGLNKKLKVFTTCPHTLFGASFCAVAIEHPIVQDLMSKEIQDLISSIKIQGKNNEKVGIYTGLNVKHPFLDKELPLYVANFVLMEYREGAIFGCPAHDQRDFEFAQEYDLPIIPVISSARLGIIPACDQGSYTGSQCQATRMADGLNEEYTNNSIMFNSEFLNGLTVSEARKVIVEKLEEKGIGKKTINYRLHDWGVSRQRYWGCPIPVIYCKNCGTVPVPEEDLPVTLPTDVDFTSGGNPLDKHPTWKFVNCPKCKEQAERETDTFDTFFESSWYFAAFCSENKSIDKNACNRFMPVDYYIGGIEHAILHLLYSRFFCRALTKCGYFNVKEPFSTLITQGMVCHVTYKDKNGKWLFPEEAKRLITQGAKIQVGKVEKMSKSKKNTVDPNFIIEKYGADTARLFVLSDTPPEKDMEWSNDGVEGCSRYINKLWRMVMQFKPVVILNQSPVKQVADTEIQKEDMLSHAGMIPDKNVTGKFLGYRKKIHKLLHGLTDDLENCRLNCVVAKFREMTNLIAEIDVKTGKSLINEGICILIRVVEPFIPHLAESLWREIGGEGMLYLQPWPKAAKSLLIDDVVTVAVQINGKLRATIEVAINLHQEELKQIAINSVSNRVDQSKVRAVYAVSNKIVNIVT
Wolbachia LeuRS, sequence (Q5GS31 219-418): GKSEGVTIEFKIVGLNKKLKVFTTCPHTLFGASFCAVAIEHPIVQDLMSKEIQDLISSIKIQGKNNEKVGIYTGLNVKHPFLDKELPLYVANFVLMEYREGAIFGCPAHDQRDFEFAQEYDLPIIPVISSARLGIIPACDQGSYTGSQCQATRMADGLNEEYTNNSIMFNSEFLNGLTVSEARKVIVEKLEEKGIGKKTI
Wolbachia LeuRS (residues 219 to 418), sequence (Q5GS31 219-418): as above

| SMILES | -T∆S (Wolbachia LeuRS) [kcal/mol] | ∆G (Wolbachia LeuRS) [kcal/mol] | ∆H (Wolbachia LeuRS) [kcal/mol] | IC50 [1] [µM] | T ½ (half-life inhibition time, reactivation rate) [2] [h] | binding to Wolbachia LeuRS (in words) (Wolbachia LeuRS) | increase of the melting temperature ∆Tm [3] [°C] | EC50 ([4]; C6/36 (wAlbB) cells, read-out: Efficacy in Infected Host EC50) [µM] | binding isotherm with AMP (in words) ([5]; compared with Cmpd9 into AMP) | Wolbachia load in host cells (in words) ([4]; 9 μM for 7 days, C6/36 (wAlbB)) | EC50 ([4]; Wolbachia infection model, C6/36 (wAlbB), read-out: in cellulo efficacy EC50) [µM] | Kd ([5]; compound titrated into AMP, one-site binding model) [µM] |
| --- | --- | --- | --- | --- | --- | --- | --- | --- | --- | --- | --- | --- |
| CCCC(N)C(=O)NC1C(O)C(CO)OC1n1cnc2c(N)ncnc21 (stereo not shown) [Nva2AA, reference compound] | 1.79 | -5.94 | -7.73 | – | – | – | – | – | – | – | – | – |
| NC[C@H]1OB(O)c2c(OCCC(=O)Nc3nccs3)ccc(Br)c21 [Cmpd6] | -4.48 | -10.08 | -5.60 | 0.06 | 0.0183 | did not bind | 13 | > 10 | equivalent binding isotherm | – | – | – |
| CN(CCCOc1ccc(Br)c2c1B(O)O[C@@H]2CN)Cc1ccccc1 [Cmpd9] | -5.31 | -11.24 | -5.93 | 0.19 | 3.77 | did not bind | 13 | – | – | Reduction of Wolbachia load | 0.09 | 1000 |
